From patent publication US20240262842A1, “SMALL MOLECULE INHIBITORS OF KRAS G12C MUTANT” (Merck Sharp & Dohme LLC, priority 2021, published 2024)
pIC50: −log10 of the molar value.

Tests used:
[1] = test system: MIA PaCa-2 cells; assay: Growth inhibition activity on KRAS-G12C mutant cell line (CellTiter-Glo 3D); type: cell-based, human; conditions: Homo sapiens, MIA PaCa-2, 72 h, MIA PaCa-2, 3-day culture with compound; Table 3-1
Outline: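 IC50 (nM) derived from inhibition of luminescence (CellTiter-Glo 3D) relative to compound-free wells. Cells were seeded in U-bottom plates, grown 1 day, then exposed to compound for 3 days at 37 °C with 0.2% final DMSO.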

[2] = target: T1, interaction between GMPPNP-bound recombinant K-Ras4B G12C mutant protein and cRAF RAS-binding domain (cRAF-RBD) (Homo sapiens, UniProt P01116, G12C); assay: Inhibitory activity on interaction between KRAS G12C and cRAF (Alpha technology); conditions: GMPPNP-bound KRAS G12C incubated with compound 25° C. 1 hour; Table 2-1; read-out: IC50
T1 construct: His-tag (N)
Outline: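 Alpha signal measured 1.5 h after adding cRAF-RBD (aa 50-132) and detection reagents to GMPPNP-bound KRAS G12C (aa 1-169) pretreated 1 h at 25° C with compound (pH 7.5 buffer). 0% inhibition = DMSO, 100% = GDP-loaded KRAS; IC50 by curve fit.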

T1 sequence (P01116 with tags, fused parts or gaps isoform P01116-2 G12C): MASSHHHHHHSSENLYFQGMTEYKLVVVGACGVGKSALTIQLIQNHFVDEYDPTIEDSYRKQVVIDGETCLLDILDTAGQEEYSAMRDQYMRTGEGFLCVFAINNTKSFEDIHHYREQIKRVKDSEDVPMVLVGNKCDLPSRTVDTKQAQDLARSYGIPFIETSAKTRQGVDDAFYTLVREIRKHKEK

Row | SMILES | pIC50 [1] | pIC50 [2]
1 | Cn1cnc2c3c(c(C(F)(F)F)cc21)-c1cccn2c(C(=O)c4cc(F)c(NC(=O)/C=C/CN5CCC[C@@](C)(O)C5)c(F)c4)cc(c12)CCO3 [Example 195, (R,E)-N-(2,6-difluoro-4-(9-methyl-7-(trifluoro-meth-yl)-13,14-dihydro-9H-imidazo[4″,5″:5′,6′]-benzo[1′,2′:2,3]oxocino-[4,5,6-hi]indolizine-2-carbonyl)phenyl)-4-(3-hydroxy-3-methylpiper-idin-1-yl)but-2-enamide] | 7.71 | 7.40
2 | Cn1cnc2c3c(c(C(F)(F)F)cc21)-c1cccn2c(C(=O)c4cc(F)c(NC(=O)/C=C/CN5CCC[C@](C)(O)C5)c(F)c4)cc(c12)CCO3 [Example 196, (S,E)-N-(2,6-difluoro-4-(9-methyl-7-(trifluoro-methyl)-13,14-dihydro-9H-imidazo[4″,5″:5′,6′]-benzo[1′,2′:2,3]oxocino-[4,5,6-hi]indolizine-2-carbonyl)phenyl)-4-(3-hydroxy-3-methylpiper-idin-1-yl)but-2-enamide] | 7.50 | 7.45
3 | Cn1cnc2c3c(c(C(F)(F)F)cc21)-c1cccn2c(C(=O)c4cc(F)c(NC(=O)/C=C/CN5C6CCC5COC6)c(F)c4)cc(c12)CCO3 [Example 197] | 7.96 | 7.93
4 | Cn1cnc2c3c(c(C(F)(F)F)cc21)-c1cccn2c(C(=O)c4cc(F)c(NC(=O)/C=C/CN5CC6(COC6)C5)c(F)c4)cc(c12)CCO3 [Example 198, (E)-N-(2,6-difluoro-4-(9-methyl-7-(trifluorometh-yl)-13,14-dihydro-9H-imidazo[4″,5″:5′,6′]benzo-[1′,2′:2,3]oxocino[4,5,6-hi]indolizine-2-carbonyl)-phenyl)-4-(2-oxa-6-azaspiro[3.3]heptan-6-yl)but-2-enamide] | 7.67 | 7.24
5 | CN1CCc2cc(C(=O)c3cc(F)c(NC(=O)/C=C/CN4C[C@@H]5C[C@H]4CO5)c(F)c3)n3cccc(c23)-c2c(C(F)(F)F)cc3c(ncn3C)c21 [Example 208, (E)-4-((1S,4S)-2-oxa-5-azabicyclo[2.2.1]heptan-5-yl)-N-(4-(9,12-dimeth-yl-7-(trifluoromethyl)-9,12,13,14-tetrahydro-imidazo[4″,5″:5′,6′]benzo-[1′,2′:2,3]azocino[4,5,6-hi]indolizine-2-carbonyl)-2,6-difluorophenyl)but-2-enamide] | 7.94 | 7.45
6 | COCc1nc2c3c(c(C(F)(F)F)cc2n1C)-c1cccn2c(C(=O)c4cc(F)c(NC(=O)/C=C/CN[C@H]5CCOC5)c(F)c4)cc(c12)COC3 [Example 209, (S,E)-N-(2,6-difluoro-4-(10-(methoxymethyl)-9-methyl-7-(trifluoromethyl)-9,12-dihydro-14H-imidazo[4″,5″:3′,4′]benzo[1′,2′:6,7]oxocino[5,4,3-hi]indolizine-2-carbonyl)phenyl)-4-((tetrahydrofuran-3-yl)amino)but-2-enamide] | 7.73 | 7.33
7 | COc1cc(N2CCCC2=O)cc2c1-c1cccn3c(C(=O)c4cc(F)c(NC(=O)/C=C/CNC5(C)CC5)c(F)c4)cc(c13)CCO2 [Example 210] | 7.22 | 7.42
8 | C[C@@H](O)[C@@H]1CCCN1C/C=C/C(=O)Nc1c(F)cc(C(=O)c2cc3c4c(cccn24)-c2c(C(F)(F)F)cc4c(ncn4C)c2N(C)CC3)cc1F [Example 211, (E)-N-(4-(9,12-dimethyl-7-(trifluoromethyl)-9,12,13,14-tetrahydro-imidazo[4″,5″:5′,6′]benzo-[1′,2′:2,3]azocino[4,5,6-hi]indolizine-2-carbonyl)-2,6-difluorophenyl)-4-((S)-2-((R)-1-hydroxy-ethyl)pyrrolidin-1-yl)but-2-enamide] | 7.96 | 7.29
9 | Cn1cnc2c3c(c(C(F)(F)F)cc21)-c1cccn2c(C(=O)c4cc(F)c(NC(=O)/C=C/CN5C6COCC5C6)c(F)c4)cc(c12)CCO3 [Example 212, (E)-4-(3-oxa-6-azabicyclo-[3.1.1]heptan-6-yl)-N-(2,6-difluoro-4-(9-meth-yl-7-(trifluoromethyl)-13,14-dihydro-9H-imidazo-[4″,5″:5′,6′]benzo[1′,2′: 2,3]oxocino[4,5,6-hi]-indolizine-2-carbonyl)-phenyl)but-2-enamide] | 8.38 | 7.79
10 | Cn1cnc2c3c(c(C(F)(F)F)cc21)-c1cccn2c(C(=O)c4cc(F)c(NC(=O)/C=C/CN5C6CCCC5COC6)c(F)c4)cc(c12)CCO3 [Example 221, (E)-4-(3-oxa-9-azabicyclo-[3.3.1]nonan-9-yl)-N-(2,6-difluoro-4-(9-methyl-7-(trifluoromethyl)-13,14-dihydro-9H-imidazo[4″,5″: 5′,6′]benzo[1′,2′:2,3]oxo-cino[4,5,6-hi]indolizine-2-carbonyl)phenyl)but-2-enamide] | 7.68 | 7.41

Now from value to compound:

Row | pIC50 [1] | pIC50 [2] | SMILES
11 | 7.60 | 7.21 | Cn1cnc2c3c(c(C(F)(F)F)cc21)-c1cccn2c(C(=O)c4cc(F)c(NC(=O)/C=C/CN5C[C@H]6COC[C@H]6C5)c(F)c4)cc(c12)CCO3 [Example 213, (E)-N-(2,6-difluoro-4-(9-methyl-7-(trifluorometh-yl)-13,14-dihydro-9H-imidazo[4″,5″:5′,6′]benzo-[1′,2′:2,3]oxocino[4,5,6-hi]indolizine-2-carbonyl)-phenyl)-4-((3aR,6aS)-tetrahydro-1H-furo[3,4-c]pyrrol-5(3H)-yl)but-2-enamide]
12 | 8.96 | 7.94 | CN1CCc2cc(C(=O)c3cc(F)c(NC(=O)/C=C/CNC4(C)CC4)c(F)c3)n3cccc(c23)-c2c(C(F)(F)F)cc3c(ncn3C)c21 [Example 214, (E)-N-(4-(9.12-dimethyl-7-(trifluoromethyl)-9,12,13,14-tetrahydro-imidazo[4″,5″:5′,6′]benzo-[1′,2′:2,3]azocino[4,5,6-hi]indolizine-2-carbonyl)-2,6-difluorophenyl)-4-((1-methylcyclopropyl)amino)-but-2-enamide]
13 | 8.47 | 7.74 | COCCn1cnc2c3c(c(C(F)(F)F)cc21)-c1cccn2c(C(=O)c4cc(F)c(NC(=O)C=CCNC5(C)CC5)c(F)c4)cc(c12)CCN3C [Example 215, (E)-N-(2,6-difluoro-4-(9-(2-methoxyethyl)-12-methyl-7-(trifluoromethyl)-9,12,13,14-tetrahydroimidazo[4″,5″:5′,6′]benzo[1′,2′:2,3]azocino[4,5,6-hi]indolizine-2-carbonyl)phenyl)-4-((1-methylcyclopropyl)amino)but-2-enamide]
14 | 8.21 | 7.71 | Cc1nnc2c3c(c(C(F)(F)F)cn12)-c1cccn2c(C(=O)c4cc(F)c(NC(=O)/C=C/CN[C@H]5CCOC5)c(F)c4)cc(c12)CCN3C [Example 217, (S,E)-N-(4-(10,13-dimethyl-7-(trifluoromethyl)-14,15-dihydro-13H-[1,2,4]triazolo[4″,3″:1′,2′]pyrido[3′,4′:2,3]azocino[4,5,6-hi]indolizine-2-carbonyl)-2,6-difluorophenyl)-4-((tetrahydrofuran-3-yl)amino)but-2-enamide]
15 | 7.90 | 7.41 | C[C@H](O)[C@@H]1CCCN1C/C=C/C(=O)Nc1c(F)cc(C(=O)c2cc3c4c(cccn24)-c2c(C(F)(F)F)cc4c(ncn4C)c2N(C)CC3)cc1F [Example 219, (E)-N-(4-(9,12-dimethyl-7-(trifluoromethyl)-9,12,13,14-tetrahydro-imidazo[4″,5″:5′,6′]benzo-[1′,2′:2,3]azocino[4,5,6-hi]indolizine-2-carbonyl)-2,6-difluorophenyl)-4-((S)-2-((S)-1-hydroxy-ethyl)pyrrolidin-1-yl)but-2-enamide]
16 | 8.19 | 7.61 | Cn1cnc2c3c(c(C(F)(F)F)cc21)-c1cccn2c(C(=O)c4cc(F)c(NC(=O)/C=C/CN5CC6CCC5CO6)c(F)c4)cc(c12)CCO3 (stereo not drawn) [Example 220, (E)-4-(2-oxa-5-aza-bicyclo[2.2.2]octan-5-yl)-N-(2,6-difluoro-4-(9-methyl-7-(trifluorometh-yl)-13,14-dihydro-9H-imidazo[4″,5″:5′,6′]benzo-[1′,2′:2,3]oxocino[4,5,6-hi]indolizine-2-carbonyl)-phenyl)but-2-enamide]
17 | 5.71 | 7.12 | Cn1cnc2c3c(c(C(F)(F)F)cc21)-c1cccn2c(C(=O)c4cc(F)c(NC(=O)/C=C/CN5CCCC[C@H]5CO)c(F)c4)cc(c12)CCO3 [Example 222, (S,E)-N-(2,6-difluoro-4-(9-methyl-7-(trifluoro-methyl)-13,14-dihydro-9H-imidazo[4″,5″:5′,6′]-benzo[1′,2′:2,3]oxocino-[4,5,6-hi]indolizine-2-carbonyl)phenyl)-4-(2-(hydroxymethyl)piperidin-1-yl)but-2-enamide]
18 | 7.75 | 7.55 | COCc1nc2c3c(c(C(F)F)cc2n1C)-c1cccn2c(C(=O)c4cc(F)c(NC(=O)/C=C/CNC5(C)COC5)c(F)c4)cc(c12)CCN3C [Example 224, (E)-N-(4-(7-(difluoromethyl)-10-(methoxymethyl)-9,12-dimethyl-9,12,13,14-tetrahydroimidazo[4″,5″:5′,6′]benzo[1′,2′:2,3]azocino[4,5,6-hi]indolizine-2-carbonyl)-2,6-difluorophenyl)-4-((3-methyloxetan-3-yl)amino)but-2-enamide]
